US20190100534A1, “Cephem Compounds with Latent Reactive Groups” (Gladius Pharmaceuticals, Inc., priority 2017, published 2019)

Legend:
Experiment in all cases: MIC determination
[1] = system: A. baumannii (JMI OXA-58); assay type: cell-based, Acinetobacter baumannii; conditions: Acinetobacter baumannii, class D carbapenemase producer, CAMH broth, 20 μM Apo-Transferrin, 37° C., 18 hours, read-out: Minimum Inhibitory Concentrations, A. baumannii (JMI OXA-58)
Procedure, shortened: (§1)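 Using an iron-depleting medium (CAMH plus 20 μM apo-transferrin), organisms at 0.5 McFarland faced compound from 64 μg/mL downward in twofold steps. Readout: visual, after 18 h at 37 °C.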

[2] = system: A. baumannii; assay type: cell-based, Acinetobacter baumannii
Procedure, shortened: as §1

[3] = system: Pseudomonas aeruginosa PA-RR-(purple Fre D); assay type: cell-based; conditions: Pseudomonas aeruginosa, CAMH broth, 20 μM Apo-Transferrin, 37° C., 18 hours, read-out: Minimum Inhibitory Concentrations, PA-RR-(purple Fre D)
Procedure, shortened: as §1

[4] = system: Pseudomonas aeruginosa PA-RR-(980151052); assay type: cell-based; conditions: Pseudomonas aeruginosa; PA-RR-(980151052); CAMH broth, 20 μM Apo-Transferrin, 37° C., 18 hours; read-out: Minimum Inhibitory Concentrations, PA-RR-(980151052)
Procedure, shortened: as §1

[5] = system: Pseudomonas aeruginosa PA-RR-(G7305586); assay type: cell-based; conditions: Pseudomonas aeruginosa; PA-RR-(G7305586); CAMH broth, 20 μM Apo-Transferrin, 37° C., 18 hours; read-out: Minimum Inhibitory Concentrations, PA-RR-(G7305586)
Procedure, shortened: as §1

[6] = system: Pseudomonas aeruginosa PA-RR-(98023895); assay type: cell-based; conditions: Pseudomonas aeruginosa; PA-RR-(98023895); CAMH broth, 20 μM Apo-Transferrin, 37° C., 18 hours; read-out: Minimum Inhibitory Concentrations, PA-RR-(98023895)
Procedure, shortened: as §1

[7] = system: Pseudomonas aeruginosa PA (RR-2); assay type: cell-based; conditions: Pseudomonas aeruginosa; PA (RR-2); CAMH broth, 20 μM Apo-Transferrin, 37° C., 18 hours; read-out: Minimum Inhibitory Concentrations, PA (RR-2)
Procedure, shortened: as §1

[8] = system: Pseudomonas aeruginosa PA (URMC-2); assay type: cell-based; conditions: Pseudomonas aeruginosa; PA (URMC-2); CAMH broth, 20 μM Apo-Transferrin, 37° C., 18 hours; read-out: Minimum Inhibitory Concentrations, PA (URMC-2)
Procedure, shortened: as §1

[9] = system: EC (URMC-3); assay type: cell-based, Escherichia coli; conditions: Escherichia coli, CAMH broth, 20 μM Apo-Transferrin, 37° C., 18 hours, read-out: Minimum Inhibitory Concentrations, EC (URMC-3)
Procedure, shortened: as §1

[10] = system: EC(KB2 CTX-M-15); assay type: cell-based, Escherichia coli; conditions: Escherichia coli, CAMH broth, 20 μM Apo-Transferrin, 37° C., 18 hours, read-out: Minimum Inhibitory Concentrations, EC(KB2 CTX-M-15)
Procedure, shortened: as §1

[11] = system: EC(ATCC NDM-1); assay type: cell-based, Escherichia coli; conditions: Escherichia coli, CAMH broth, 20 μM Apo-Transferrin, 37° C., 18 hours, read-out: Minimum Inhibitory Concentrations, EC(ATCC NDM-1)
Procedure, shortened: as §1

[12] = system: EC (RR -1); assay type: cell-based, Escherichia coli; conditions: CAMH broth, 20 μM Apo-Transferrin, 37° C., 18 hours
Procedure, shortened: as §1

[13] = system: EC(JMI OXA-48); assay type: cell-based, Escherichia coli; conditions: Escherichia coli, CAMH broth, 20 μM Apo-Transferrin, 37° C., 18 hours, read-out: Minimum Inhibitory Concentrations, EC(JMI OXA-48)
Procedure, shortened: as §1

[14] = system: EC(KB1 CTX-M-15); assay type: cell-based, Escherichia coli; conditions: Escherichia coli, CAMH broth, 20 μM Apo-Transferrin, 37° C., 18 hours, read-out: Minimum Inhibitory Concentrations, EC(KB1 CTX-M-15)
Procedure, shortened: as §1

[15] = system: EC (RR -2); assay type: cell-based, Escherichia coli; conditions: CAMH broth, 20 μM Apo-Transferrin, 37° C., 18 hours
Procedure, shortened: as §1

[16] = system: EC (URMC-1); assay type: cell-based, Escherichia coli; conditions: Escherichia coli, CAMH broth, 20 μM Apo-Transferrin, 37° C., 18 hours, read-out: Minimum Inhibitory Concentrations, EC (URMC-1)
Procedure, shortened: as §1

[17] = system: EC (URMC-2); assay type: cell-based, Escherichia coli; conditions: Escherichia coli, CAMH broth, 20 μM Apo-Transferrin, 37° C., 18 hours, read-out: Minimum Inhibitory Concentrations, EC (URMC-2)
Procedure, shortened: as §1

[18] = system: CF (RR -1); assay type: cell-based, Citrobacter freundii; conditions: CAMH broth, 20 μM Apo-Transferrin, 37° C., 18 hours
Procedure, shortened: as §1

[19] = system: EA (URMC -3); assay type: cell-based; conditions: CAMH broth, 20 μM Apo-Transferrin, 37° C., 18 hours
Procedure, shortened: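 Organisms grown in LB at 37 °C to OD600 >0.1, adjusted to 0.08-0.1 OD600 in CAMH broth. Compounds two-fold serially diluted from 64 μg/mL in CAMH broth with 20 μM apo-transferrin; plates incubated 18 h at 37 °C. MIC taken as lowest concentration giving a transparent well.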

[20] = system: KP (ATCC KPC-3); assay type: cell-based, Klebsiella pneumoniae; conditions: CAMH broth, 20 μM Apo-Transferrin, 37° C., 18 hours
Procedure, shortened: as §1

[21] = system: KP (URMC-2); assay type: cell-based, Klebsiella pneumoniae; conditions: CAMH broth, 20 μM Apo-Transferrin, 37° C., 18 hours
Procedure, shortened: as §1

[22] = system: KP (URMC-1); assay type: cell-based, Klebsiella pneumoniae; conditions: CAMH broth, 20 μM Apo-Transferrin, 37° C., 18 hours
Procedure, shortened: as §1

[23] = system: KP (GJ 5659 TEM-26); assay type: cell-based, Klebsiella pneumoniae; conditions: CAMH broth, 20 μM Apo-Transferrin, 37° C., 18 hours
Procedure, shortened: as §1

[24] = system: KP (URMC-3); assay type: cell-based, Klebsiella pneumoniae; conditions: CAMH broth, 20 μM Apo-Transferrin, 37° C., 18 hours
Procedure, shortened: as §1

[25] = system: KP (RR -1); assay type: cell-based, Klebsiella pneumoniae; conditions: CAMH broth, 20 μM Apo-Transferrin, 37° C., 18 hours
Procedure, shortened: as §1

[26] = system: ENC (ATCC NDM-1); assay type: cell-based, Enterobacter cloacae; conditions: CAMH broth, 20 μM Apo-Transferrin, 37° C., 18 hours
Procedure, shortened: as §1

[27] = system: PM (RR -1); assay type: cell-based, Proteus mirabilis; conditions: CAMH broth, 20 μM Apo-Transferrin, 37° C., 18 hours
Procedure, shortened: as §1

Compound: CC(C)(O/N=C(\C(=O)N[C@@H]1C(=O)N2C(C(=O)O)=C(C=Cc3ccc(C[N+]4(C)CCc5ccc(O)c(O)c5C4)cc3)CS[C@H]12)c1csc(N)n1)C(=O)O (mixture of isomers) [Compound 442, 2-(4-((E/Z)-2-((6R,7R)-7-((Z)-2-(2-aminothiazol-4-yl)-2-(((2-carboxypropan-2-yl)oxy)imino)acetamido)-2-carboxy-8-oxo-5-thia-1-azabicyclo[4.2.0]oct-2-en-3 yl)vinyl)benzyl)-7,8-dihydroxy-2-methyl-1,2,3,4-tetrahydroisoquinolin-2-ium]
- MIC [1]: > 64 µg/mL
- MIC ([2]; Acinetobacter baumannii, A. baumannii, CAMH broth, 20 μM Apo-Transferrin, 37° C., 18 hours, read-out: Minimum Inhibitory Concentrations, A. baumannii): 1 µg/mL
- MICs for an Acinetobacter baumannii strain, in words ([2]; review of Table 2): low microgram/mL MICs
- MIC [3]: 1 µg/mL
- MIC [4]: 2 µg/mL
- MIC [5]: 2 µg/mL
- MIC [6]: 8 µg/mL
- MIC [7]: ≤ 0.06 µg/mL
- MIC [8]: 0.25 µg/mL
- MIC [9]: 0.13 µg/mL
- MIC [10]: 32 µg/mL
- MIC [11]: > 64 µg/mL
- Mimimum Inhibitory Concentrations, EC (RR -1) [12]: 0.25 microgram/mL
- MIC [13]: 4 µg/mL
- MIC [14]: 32 µg/mL
- Mimimum Inhibitory Concentrations, EC (RR -2) [15]: 0.13 microgram/mL
- MIC [16]: 0.25 µg/mL
- MIC [17]: 0.13 µg/mL
- Mimimum Inhibitory Concentrations, CF (RR -1) [18]: 0.25 microgram/mL
- Mimimum Inhibitory Concentrations, EA (URMC -3) [19]: 1 microgram/mL
- Minimum Inhibitory Concentrations, KP (ATCC KPC-3) [20]: >64 microgram/mL
- Minimum Inhibitory Concentrations, KP (URMC-2) [21]: 0.25 microgram/mL
- Minimum Inhibitory Concentrations, KP (URMC-1) [22]: 0.13 microgram/mL
- Minimum Inhibitory Concentrations, KP (GJ 5659 TEM-26) [23]: 0.5 microgram/mL
- Minimum Inhibitory Concentrations, KP (URMC-3) [24]: ≤0.06 microgram/mL
- Mimimum Inhibitory Concentrations, KP (RR -1) [25]: 0.25 microgram/mL
- Mimimum Inhibitory Concentrations, ENC (ATCC NDM-1) [26]: >64 microgram/mL
- Mimimum Inhibitory Concentrations, PM (RR -1) [27]: ≤0.06 microgram/mL
